Test results taken from patent US20150010474A1, “Compounds And Methods For Selective Imaging And/Or Ablation” (Auckland Uniservices Limited, priority 2011, published 2015).

Experiments:
CO-Frp (V.h) = target: T1, CO-Frp (V.h) (Vibrio harveyi, UniProt Q56691); test: Initial rate of metabolism by purified recombinant bacterial nitroreductase (NADPH consumption, UV/Vis); format: biochemical; conditions: compound 500 μM, NADPH 200 μM, 10 mM Tris-Cl pH 7.0; μmol NADPH consumed per mg enzyme per minute
T1 construct: made in house
Description: (§1) The relative initial rates of reductive metabolism of the nitro moiety of test compounds by bacterial nitroreductase's can be measured experimentally by incubating the test compound at near-saturating concentration (determined empirically) with the purified recombinant bacterial nitroreductase enzymes in the presence of NADPH co-factor. UV/Vis spectroscopy is used to measure consumption of the co-factor, indicating metabolism of the test compound by the nitroreductase.
(§2) Compounds 67, 93 and 97 (500 μM) were added to NADPH (200 μM) in 10 mM Tris-Cl pH 7.0. Reactions were initiated by enzyme addition (between 5 and 20 μg per reaction). Rates represent μmol of NADPH consumed per mg enzyme added per minute.

NfrA (B.s) = target: T2, NfrA (B.s) (Bacillus subtilis, UniProt P39605); test: as above; format: biochemical; conditions: compound 500 μM, NADPH 200 μM, 10 mM Tris-Cl pH 7.0; μmol NADPH consumed per mg enzyme per minute
T2 construct: made in house
Description: as §1, §2

NfsA (E.c) = target: T3, NfsA (E.c) (Escherichia coli, UniProt P17117); test: as above; format: biochemical; conditions: compound 500 μM, NADPH 200 μM, 10 mM Tris-Cl pH 7.0; μmol NADPH consumed per mg enzyme per minute
T3 construct: made in house
Description: as §1, §2

wild-type HCT-116 cells = test: Flow cytometry of metabolism and binding (EF5 antibody); format: cell-based, human; conditions: for Metabolism and binding by FACS, wild-type HCT-116 cells (FIG. 3): 20 μM, 2 hours, oxic conditions (21% O2, 5% CO2)
Description: FIG. 3 illustrates the results of flow cytometry analysis of HCT-116 cells stably expressing E. coli NfsA relative to HCT-116 wild-type cells after in vitro exposure to 20 μM of compounds 15, 93 and 67 for 2 hours. 1×10^6 cells were incubated with test compounds under oxic conditions. Samples were fixed and stained with EF5 antibody Alexa 488 ELK3.51 at 100 μg/ml. Samples were then analysed on a Becton Dickinson FACscan flow cytometer.
FIG. 4 illustrates the results of a second independent flow cytometry analysis of compound 15 and 93 metabolism and binding in wild-type HCT-116 cells, HCT-116 cells stably over-expressing cytochrome P450 reductase (CYPOR), a human one-electron reductase known to metabolise nitroheterocyclic and nitroaromatic compounds, or HCT-116 cells stably expressing the bacterial nitroreductase E. coli NfsA. 1×10^6HCT-116 cells were seeded in 6 well plates underaerobic conditions (21% O2, 5% CO2). After 2 h incubation, drug free control (wild-type HCT-116, foreground), 20 μM (wild-type HCT-116, second plot), 100 μM (wild-type HCT-116, third plot), 20 μM (HCT-116-CYPOR, forth plot), 100 μM (HCT-116-CYPOR, fifth plot) or 20 μM (HCT-116-NfsA, sixth plot) of compound 15 or 93 was added. After 2 h incubation cells were harvested and fixed with paraformaldehyde before being incubated overnight with 100 μl of 75 μg/ml EF5 CY5 conjugated antibody. Samples were then analysed on a Becton Dickinson FACscan flow cytometer.
FIG. 6 illustrates the results of flow cytometry analysis of compound 15 and 93 metabolism and binding in wild-type HCT-116 cells and HCT-116 cells stably over-expressing cytochrome P450 reductase (CYPOR), a human one-electron reductase known to metabolise nitroheterocyclic and nitroaromatic compounds. 1×10^6 HCT-116 cells were seeded in 6 well plates underanoxic conditions. After 2 h incubation, drug free control (wild-type HCT-116, foreground), 20 μM (wild-type HCT-116, second plot), 100 μM (wild-type HCT-116, third plot), 20 μM (HCT-116-CYPOR, forth plot) or 100 μM (HCT-116-CYPOR, fifth plot) of compound 15 or 93 was added. After 2 h incubation cells were harvested and fixed with paraformaldehyde before being incubated overnight with 100 μl of 75 μg/ml EF5 CY5 conjugated antibody. Samples were then analysed on a Becton Dickinson FACscan flow cytometer.

[1] = tested on: human solid tumour xenograft HCT116 (WT); test: Hypoxia-dependent binding by immunofluorescent microscopy with pimonidazole co-staining; format: in vivo, NIH-III nude mice; conditions: 60 mg/kg i.p., 60 minutes after 60 mg/kg pimonidazole; tumours excised after 120 minutes
Description: FIG. 9 illustrates the absence of hypoxic dependent binding of compound 67 in the human solid tumour xenograft HCT116 relative to compound 15 whilst including hypoxia co-staining by pimonidazole (Hypoxyprobe™) as an internal reference (positive control). HCT116 WT tumours were inoculated subcutaneously onto the flank of NIH-Ill nude mice. When the mixed tumours reached approximately 500 mm^3, mice were dosed i.p. with 60 mg/kg of pimonidazole, and 60 minutes later dosed with either 60 mg/kg of compound 15 or 60 mg/kg of compound 67. After 120 minutes the tumours were excised, and fixed in formalin before being embedded in paraffin wax. Tumour section were cut (5 microns) and mounted onto glass slides for immunodetection of bound adducts of compounds. Immunofluorescent microscopy was performed using a monoclonal antibody (Mab1, hybridoma clone 4.3.11.3) conjugated to Alexa-488 (green) for the detection of pimonidazole adducts, and monoclonal antibody ELK3-51 directly conjugated to the fluorophore CY5 (Ex/Em 650/670 nm) for detection of adducts formed by compound 15 or compound 67. The overlap of pimonidazole with either one of these markers appears as yellow. Images were acquired on a Zeiss LSM 710 confocal microscope (×20 magnification).

[2] = tested on: human solid tumour xenograft NCI-H1299 (WT); test: Hypoxia-dependent binding by fluorescent immunohistochemistry with pimonidazole co-staining; format: in vivo, NIH-III nude mice; conditions: 60 mg/kg i.p., 60 minutes after 60 mg/kg pimonidazole; tumours excised after 120 minutes
Description: FIG. 10 illustrates the absence of hypoxic-dependent binding of compound 67 and compound 93 by fluorescent immune-histochemistry in the human solid tumour xenograft NCI-H1299, with reference to hypoxia staining by compound 15 and pimonidazole (Hypoxyprobe™) as internal standards (positive controls). NCI-H1299 WT tumours were inoculated subcutaneously onto the flank of NIH-Ill nude mice. When the mixed tumours reached approximately 800 mm^3, mice were dosed i.p. with 60 mg/kg of pimonidazole, and 60 minutes later dosed with either 60 mg/kg of compound 15, or 60 mg/kg of compound 67, or 60 mg/kg of compound 93. After 120 minutes the tumours were excised, and fixed in formalin before being embedded in paraffin wax. Tumour section were cut (5 microns) and mounted onto glass slides for immunodetection of bound adducts of compounds. Immunofluorescent microscopy was performed using a monoclonal antibody (Mab1, hybridoma clone 4.3.11.3) conjugated to Alexa-488 (Ex/Em 499/519; green) for the detection of pimonidazole adducts, and monoclonal antibody ELK3-51 directly conjugated to the fluorophore CY5 (Ex/Em 650/670 nm; red) for detection of adducts formed by compound 15 or compound 67 or compound 93. The overlap of pimonidazole with any one of these markers appears as yellow. Images were acquired on a Zeiss LSM 710 confocal microscope (×20 magnification).

T1 sequence (Q56691 whole entry): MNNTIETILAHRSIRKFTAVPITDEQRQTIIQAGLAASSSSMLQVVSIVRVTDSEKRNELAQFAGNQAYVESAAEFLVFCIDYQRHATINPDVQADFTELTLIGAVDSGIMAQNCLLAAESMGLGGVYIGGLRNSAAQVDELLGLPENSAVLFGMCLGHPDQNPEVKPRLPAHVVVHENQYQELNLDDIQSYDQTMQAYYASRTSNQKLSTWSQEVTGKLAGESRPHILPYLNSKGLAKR
T2 sequence (P39605 whole entry): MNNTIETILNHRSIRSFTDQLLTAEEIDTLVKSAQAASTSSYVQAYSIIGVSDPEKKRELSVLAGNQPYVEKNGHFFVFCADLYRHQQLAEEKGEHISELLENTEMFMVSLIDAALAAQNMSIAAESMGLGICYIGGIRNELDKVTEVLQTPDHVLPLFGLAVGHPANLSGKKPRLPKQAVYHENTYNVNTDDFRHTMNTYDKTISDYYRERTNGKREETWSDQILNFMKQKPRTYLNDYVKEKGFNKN
T3 sequence (P17117 whole entry): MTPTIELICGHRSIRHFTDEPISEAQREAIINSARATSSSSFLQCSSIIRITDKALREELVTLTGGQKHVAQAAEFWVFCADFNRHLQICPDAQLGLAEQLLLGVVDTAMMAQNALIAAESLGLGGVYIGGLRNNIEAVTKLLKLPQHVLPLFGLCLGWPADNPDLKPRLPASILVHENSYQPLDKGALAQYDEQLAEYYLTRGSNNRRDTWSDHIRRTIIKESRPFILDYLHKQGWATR

| Compound | Rate of metabolism by CO-Frp (V.h) (CO-Frp (V.h)) | Rate of metabolism by NfrA (B.s) (NfrA (B.s)) | Rate of metabolism by NfsA (E.c) (NfsA (E.c)) | Metabolism and binding by FACS, wild-type HCT-116 cells (FIG. 3) (wild-type HCT-116 cells) | Hypoxia-dependent binding in HCT116 WT tumours (FIG. 9) [1] | Hypoxia-dependent binding in NCI-H1299 WT tumours, immunofluorescent microscopy (FIG. 10) [2] | melting point | Metabolism and binding by FACS, wild-type HCT-116 cells (FIG. 4) (wild-type HCT-116 cells; 20 μM and 100 μM, 2 h, aerobic conditions) | Metabolism and binding by FACS, wild-type HCT-116 cells, anoxia (FIG. 6) (wild-type HCT-116 cells; 20 μM and 100 μM, 2 h, anoxic conditions) |
| --- | --- | --- | --- | --- | --- | --- | --- | --- | --- |
| Cc1ncc([N+](=O)[O-])n1CC(=O)NCC(F)(F)C(F)(F)F [Compound 67, 2-(2-methyl-5-nitro-1H-imidazol-1-yl)-N-(2,2,3,3,3-pentafluoropropyl)acetamide] | 1.1 µmol/min/mg | 1.7 µmol/min/mg | 2.7 µmol/min/mg | minimal metabolism and binding | not detected in the pimonidazole positive hypoxic regions of the tumour | not detected in the pimonidazole positive hypoxic regions of the NCI-H1299 tumours | 149 to 151 °C | – | – |
| O=C(Cn1cnc([N+](=O)[O-])c1)NCC(F)(F)C(F)(F)F [Compound 93, 2-(4-nitro-1H-imidazol-1-yl)-N-(2,2,3,3,3-pentafluoropropyl)acetamide] | 12.2 µmol/min/mg | 7.5 µmol/min/mg | 7.6 µmol/min/mg | minimal metabolism and binding | – | not detected in the pimonidazole positive hypoxic regions of the NCI-H1299 tumours | – | minimal metabolism and binding | negligible metabolism and binding |
